We go through 74 compounds from PubChem BioAssay AID434955 (Southern Research Specialized Biocontainment Screening …, 2010).

In general, IC90 refers to the concentration at which the effect reaches the 90% level.

The test system of this experiment is M. tuberculosis H37Rv growth with meropenem, percent inhibition. Kind of experiment: beta-lactam sensitization of Mtb H37Rv, H37Rv (AID 434955).
For `O=C(CSc1ncn[nH]1)Nc1cccc2ccccc12`, the 90% effect concentration (IC90) is 65 µM.

Take `CCOC(=O)c1cnc2cc(-c3ccc(C(C)(C)C)cc3)nn2c1N`: the IC90 was 5.74 µM.

For the compound `Cc1c(OCc2ccc(C(=O)O)cc2)ccc2c(-c3ccccc3)cc(=O)oc12`, the concentration for an effect of 90% (IC90) is 2.09 µM.

With `CCN(CC)S(=O)(=O)c1ccc(N/N=C(\C)c2ccc(OC)cc2O)nc1`, the concentration for an effect of 90% (IC90) is 10.4 µM.

In the case of `O=C1CS/C(=N/N=C2C3CC4CC(C3)CC2C4)N1`, the 90% effect concentration (IC90) was 13.8 µM.

Consider `CC(C)(C)NCCCOc1ccc(Cl)cc1C(C)(C)C`, for which the concentration for an effect of 90% (IC90) is 26.9 µM.

For the compound `COc1ccc(-c2cc(=Nc3ccc(C)cc3)c3ccccc3o2)cc1`, the IC90 is 98.3 µM.

Take `COc1cc(OC)cc(-c2cc3ccc(OC)cc3cn2)c1`: the IC90 is 76.9 µM.

As for `Cc1onc(-c2ccccc2)c1C(=O)Nc1ccc(-c2nnc3n2CCCCC3)cc1`, the 90% effect concentration (IC90) was 38.6 µM.

Turning to `CC[C@@](C)(NS(=O)(=O)OCC(Cl)(Cl)Cl)c1ccccc1`, the IC90 is 54.8 µM.

`O=S(=O)(Cc1ccccc1)c1cnc2ccccc2n1`: the IC90 is 48.6 µM.

Take `O=C(/C=C/c1cccnc1)c1ccc(O)cc1`: the IC90 is 50.4 µM.

Take `CCCOc1ccc(C(=O)CCN2CCCCC2)cc1`: the IC90 is 36.4 µM.

`Cc1cc(Br)ccc1NC(=O)CN1C(=O)C2CC=CCC2C1=O` (centres undefined): the IC90 is 38.7 µM.

For the compound `COc1cc(C(=O)N/N=C/c2ccc(OC(=O)c3cccc(C)c3)cc2)ccc1O`, the IC90 was 53.4 µM.

Turning to `Cc1cc(C)cc(SCc2noc(C(=O)NC(C)C)c2C(=O)O)c1`, the concentration for an effect of 90% (IC90) was 27.3 µM.

Consider `C=CCSc1nc2c(c(-c3ccsc3)c1C#N)CN(C)CC2`, for which the IC90 is 55.1 µM.

For `COc1ccc2c(c1)c(C(C)=O)c(C)n2-c1ccccc1`, the IC90 is 6.92 µM.

`O=C(CSc1nnc(-c2ccncc2)o1)c1cccc([N+](=O)[O-])c1`: the IC90 was 45.4 µM.

Regarding `Cc1onc(-c2ccccc2Cl)c1C(=O)NCc1ccc2c(c1)cc(C)n2C`, the IC90 was 29.4 µM.

In the case of `CCCc1cc(C(=O)Nc2ccc(C(C)=O)cc2)no1`, the IC90 was 48.8 µM.

`CC(C)CC(=O)N1CCN(c2ccc([N+](=O)[O-])c(NCc3ccccc3)c2)CC1`: the IC90 was 48.6 µM.

`C/C(=N/NC(=O)c1ccccn1)c1ccncc1`: the 90% effect concentration (IC90) was 23.1 µM.

As to `O=C(CN1CCC(O)(c2ccc3c(c2)OCO3)CC1)OC1CCCCC1`, the IC90 was 35.3 µM.

Turning to `Cc1nnc(SCC2=C(C(=O)O)N3C(=O)C(NC(=O)COc4ccc(F)cc4)C3SC2)s1` (centres undefined), the IC90 is 9.33 µM.

For `CC1CCN(C(=S)NC(=O)c2ccccc2)CC1`, the IC90 is 13.6 µM.

On to `C/C(=N\NC(=S)Nc1ccccc1C)c1ccc(O)cc1`, for which the IC90 is 7.97 µM.

For `N#Cc1c(SCC(=O)O)nc(N2CCCCC2)c2c1CCCC2`, the IC90 is 27 µM.

Turning to `S=C(NN=C1C2CC3CC(C2)CC1C3)Nc1ccccc1`, the IC90 was 51.4 µM.

For `C/C(=N\OCC(=O)Nc1nc2ccccc2s1)c1ccccc1`, the concentration for an effect of 90% (IC90) was 35.6 µM.

In the case of `Cc1ccc(SCCNC(=O)c2ccc(C)c([N+](=O)[O-])c2)cc1`, the concentration for an effect of 90% (IC90) was 54 µM.

For the compound `O=C(NCc1nc2ncc(Br)cc2[nH]1)c1ccccc1`, the IC90 was 54.9 µM.

In the case of `COCc1cc(=O)n2[nH]cc(-c3ccccc3)c2n1`, the IC90 was 15.5 µM.

With `Cc1ccc(CN2C(=O)N/C(=C\c3ccc(-c4ccc(C(=O)O)cc4C)o3)C2=O)cc1`, the IC90 was 14.7 µM.

For `COc1cccc(C(=O)C2CCCN(Cc3ccccn3)C2)c1` (centres undefined), the IC90 is 97.5 µM.

Take `Cc1cccc(CSc2nnc(C)c(=O)n2N)c1`: the IC90 was 9.9 µM.

Consider `O=C1S/C(=C\C=C\c2ccco2)C(=O)N1c1ccccc1`, for which the concentration for an effect of 90% (IC90) is 77.6 µM.

Consider `CCOC(=O)CNC(=O)/C(=C\c1ccc(F)cc1)NC(=O)c1ccccc1`, for which the IC90 was 35.1 µM.

With `CC/C(=N\NC(=S)NC(C)C)c1ccc(OC)c(OC)c1`, the IC90 is 15.5 µM.

Regarding `Cc1noc(NS(=O)(=O)c2ccc(N/C=C\C(=O)c3ccc4c(c3)OCO4)cc2)c1C`, the IC90 was 86 µM.

With `Cc1ccc(S(=O)(=O)Nc2cccc3cccnc23)c([N+](=O)[O-])c1`, the 90% effect concentration (IC90) is 4.7 µM.

Turning to `Cc1nn(-c2ccccc2)c(Cl)c1CN(C(=O)CCl)c1cccc2ccccc12`, the concentration for an effect of 90% (IC90) is 48.2 µM.

On to `CCCCNC(=O)c1onc(CSc2ccccc2CC)c1C(=O)O`, for which the IC90 is 23.7 µM.

Take `CCCOc1ccccc1NC(=O)/C=C/C(N)=O`: the IC90 was 27.7 µM.

For the compound `COc1cccc(/C=N/NC(=O)c2cnccn2)c1O`, the IC90 was 13.9 µM.

For `Nc1nc(Sc2ncccc2[N+](=O)[O-])n[nH]1`, the IC90 is 77.1 µM.

As for `O=c1c2cc(Cl)ccc2[nH]c(=S)n1Cc1cccs1`, the 90% effect concentration (IC90) is 13.2 µM.

In the case of `O=C(Cn1cnc2sc3c(c2c1=O)CCCC3)NCC(=O)Nc1ccccc1F`, the IC90 is 95.5 µM.

Take `COc1ccc(C(=O)NC(=S)Nc2ccc(S(=O)(=O)Nc3cc(C)on3)cc2)cc1OC`: the 90% effect concentration (IC90) was 29 µM.

Regarding `NNC(=O)c1cccc(O)c1`, the 90% effect concentration (IC90) is 73.9 µM.

`Cc1cccc(OCc2nc(-c3ccccn3)n[nH]2)c1`: the IC90 was 7.37 µM.

Regarding `Cc1cc(C)cc(NC(=O)c2cc(Cl)sc2Cl)c1`, the IC90 is 7.73 µM.

As for `O=C(OCn1nnc2ccccc2c1=O)c1ccc2c(=O)n3c(nc2c1)CCC3`, the concentration for an effect of 90% (IC90) was 26.1 µM.

With `CCNc1nc(CN2CCCCC2)nc2scc(-c3ccccc3)c12`, the IC90 is 57.3 µM.

Take `CCCCN=C1CC(C)(C)CC(=O)/C1=C(/O)CCC`: the IC90 was 28.7 µM.

On to `O=C(Cc1ccc(Cl)cc1Cl)Nc1ccc(OC(F)F)c(Cl)c1`, for which the IC90 was 13.7 µM.

Regarding `O=C(CCl)N(c1ccccc1)C1CCS(=O)(=O)C1` (centres undefined), the IC90 was 13.9 µM.

For the compound `O=C1OC(c2ccco2)=N/C1=C\c1ccc(-c2cccc(C(F)(F)F)c2)o1`, the 90% effect concentration (IC90) was 53.4 µM.

For the compound `O=C(NCC1COc2ccccc2O1)C1CCC(CNc2c(N3CCCCC3)c(=O)c2=O)CC1` (centres undefined), the 90% effect concentration (IC90) is 26.7 µM.

For `O=C1O/C(=C/c2ccccc2)N=C1c1ccccc1`, the concentration for an effect of 90% (IC90) is 28.3 µM.

Consider `C=C(C)C1Cc2c(C)nn(-c3cccc4ccccc34)c2C1` (centres undefined), for which the 90% effect concentration (IC90) is 47.4 µM.

On to `CN(C)S(=O)(=O)c1ccc(C(=O)/C=C/c2cccnc2)cc1`, for which the concentration for an effect of 90% (IC90) is 12.1 µM.

For the compound `CCCOc1ccc(C(=O)N/N=C/c2ccc(-c3ccc(S(=O)(=O)Nc4ncccn4)cc3)o2)cc1`, the 90% effect concentration (IC90) is 26.1 µM.

With `O=C(CCN1CCOCC1)c1ccc(N2CCCCC2)cc1`, the 90% effect concentration (IC90) was 72.7 µM.

In the case of `COc1ccc(C(=O)/C=C/c2ccc(O)cc2)c(O)c1CC=C(C)C`, the IC90 was 75.1 µM.

Turning to `Cc1cccc(C)c1OCC(=O)NNC(=O)CNC(=O)c1ccc(OC(F)F)cc1`, the IC90 is 98.1 µM.

In the case of `Cn1nnnc1Sc1ncnc2scc(-c3ccc(C(F)(F)F)cc3)c12`, the 90% effect concentration (IC90) was 15 µM.

In the case of `CC(O)/C=C/c1ccc2ccccc2n1` (centres undefined), the concentration for an effect of 90% (IC90) was 57.5 µM.

For `C=C1C(=O)O[C@@H]2[C@H]1[C@@H](OC(=O)/C(C)=C/C)C/C(C)=C\C(=O)/C=C(\C)[C@@H]2O`, the 90% effect concentration (IC90) was 25.2 µM.

On to `O=C(NN1C(=O)C2C(C1=O)C1C=CC2C12CC2)c1ccncc1` (centres undefined), for which the IC90 is 13.9 µM.

Consider `CC1(C)CCN2CCC(C)(C)c3c(O)ccc1c32`, for which the IC90 is 49.3 µM.

Regarding `CCOc1ccc(N2C(=O)CC(N)C2=O)cc1` (centres undefined), the concentration for an effect of 90% (IC90) is 52.4 µM.

For the compound `CCOc1ccc(S(=O)(=O)N(C(=O)c2ccco2)c2cc3sc(=O)oc3c3ccccc23)cc1`, the IC90 is 46.9 µM.

Consider `COCCSc1nc2sc3c(c2c(=O)n1-c1ccccc1)CCN(C)C3`, for which the IC90 is 53.3 µM.
